In experiment [1] the target is DNA polymerase of hepatitis B virus (HBV) (Hepatitis B virus genotype D subtype ayw, UniProt P03156). Briefly: Inhibition of hepatitis B virus (HBV) DNA polymerase, cell free assay (Test I). It counts as biochemical. From the text:
The HBV associated DNA polymerase activity can be measured in vitro (Kaplan et al., J. Virol., 12,995-1005, 1973). A slight modification of this method has been used to test the substance for inhibition of this DNA polymerase activity. (Nordenfelt E., (Oberg, B., Helgstrand E. and Miller E. Acta path., Microbiol. Scand. Sect B, 88:169-175, 1980). With this assay the 3'-deoxy-3'-fluorothymidine-5'-triphosphate has been tested, instead of the prodrug 3'-deoxy- 3'-fluorothymidine, to evaluate its potential against hepatitis B virus DNA polymerase.
3'-deoxy-3'-fluorothymidine-5'-triphosphate was added to the final concentrations of 0.01 μM, 0.05 μM, 0.1 μM, 0.5 μM and 1.0 μM in the reaction mixture. The inhibition is calculated after 3 hours incubation at 37° C. and based on cpm compared to control with added water.

Experiment [2] has as its target T1, reverse transcriptase of HIV (HTLV-III/LAV) (Human immunodeficiency virus type 1 group M subtype B, UniProt P04585).
T1 construct: reverse transcriptase of HIV (HTLV-III/LAV) in cell free assay
Briefly: Inhibition of HIV (HTLV-III/LAV) reverse transcriptase, cell free assay (Test II). It counts as biochemical. On the procedure:
The assay was performed as described by Vrang et Oberg, Antimicrob. Agents Chemother. 29,867-872 (1986).

Experiment [3] has as its system HIV (HTLV-III/LAV) in H9 cells.
Experimental: MATERIAL AND METHODS; HIV INFECTION OF H9 CELLS
The cells were then pelleted and dispersed in 2.5 ml phosphate buffered saline (PBS) including 2 μg/ml Polybrene. After incubation for 30 min the cells were pelleted and infected with HIV. After an adsorption period of 1 hour the cells were pelleted and washed once with 2.5 ml PBS. […] Samples for reverse transcriptase activity tests were taken as indicated.
1.3 ml samples from the supernatant of each culture were centrifuged at 18 000 rpm in a 55-34 rotor for 1.5 hours and the virus pellet resuspended in 100 μl buffer containing 50 mM Tris-HC1, pH 7.5; 35 mM KC1; 4 mM DTT; 1 mM EDTA; 1.3 % Triton X-100.50 μl samples were taken to the reverse transcriptase activity tests and analyzed in a 100 μl reaction mixture containing 75 mM Tris-HC1, pH 8.0; 60 mM KC1; 6.2 mM MgC12 ; 6 mM DTT; 0.5 mM EDTA; 0.65 % Triton X-100; 100 μg/ml BSA; 25 μCi/ml ^3 H-dTTP (spec activity 80 Ci/mmol); 2.5 μg/ml (dT)12-18 ; and 2.0 μg/ml (rA)n. Incubation was for 1 hour at 37° C. and the TCA-insoluble product precipitated onto Whatman GF/A filter papers, washed and dried, and counted in a liquid scintillation counter.
A further experiment relates to DNA synthesis. The note with it: Journal f. prakt. Chemie, Vol. 315, 895-900 (1973); cited from earlier work.

Read-outs that look alike come from different tables or passages of the source.

We go through two compounds from US5446029A, “Anti-retroviral activity of 2',3'-dideoxy-3'-fluoronucleosides” (Medivir AB, priority 1986, dated 1995).

Sequence of DNA polymerase of hepatitis B virus (HBV) (P03156 whole entry): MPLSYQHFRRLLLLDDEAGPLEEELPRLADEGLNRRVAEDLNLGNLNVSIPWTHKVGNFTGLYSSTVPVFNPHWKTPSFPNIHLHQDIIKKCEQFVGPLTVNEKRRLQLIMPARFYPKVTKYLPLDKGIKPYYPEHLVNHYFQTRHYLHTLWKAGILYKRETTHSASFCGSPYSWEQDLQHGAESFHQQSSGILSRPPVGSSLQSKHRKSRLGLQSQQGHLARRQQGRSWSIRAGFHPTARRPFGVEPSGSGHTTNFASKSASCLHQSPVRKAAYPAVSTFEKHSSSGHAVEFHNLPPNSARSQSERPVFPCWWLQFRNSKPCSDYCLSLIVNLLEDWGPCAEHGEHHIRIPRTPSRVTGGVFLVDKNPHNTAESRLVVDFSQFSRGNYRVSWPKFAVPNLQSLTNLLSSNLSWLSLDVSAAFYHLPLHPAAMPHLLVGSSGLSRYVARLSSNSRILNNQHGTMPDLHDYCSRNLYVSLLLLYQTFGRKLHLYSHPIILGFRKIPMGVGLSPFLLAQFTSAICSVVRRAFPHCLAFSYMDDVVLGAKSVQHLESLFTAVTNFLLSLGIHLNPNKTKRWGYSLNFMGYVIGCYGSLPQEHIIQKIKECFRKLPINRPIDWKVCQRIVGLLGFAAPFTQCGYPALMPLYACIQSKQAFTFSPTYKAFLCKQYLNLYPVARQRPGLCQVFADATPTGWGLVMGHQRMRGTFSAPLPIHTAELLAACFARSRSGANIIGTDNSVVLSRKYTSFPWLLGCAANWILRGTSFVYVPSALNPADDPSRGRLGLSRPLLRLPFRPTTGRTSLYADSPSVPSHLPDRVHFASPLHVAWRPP

As for `Cc1cn([C@H]2C[C@H](F)[C@@H](COP(=O)(O)OP(=O)(O)OP(=O)(O)O)O2)c(=O)[nH]c1=O` [3'-deoxy-3'-fluorothymidine-5'-triphosphate], the inhibition at 1 µM in experiment [1] (read-out: % inhibition of HBV DNA polymerase activity) was 88%. In experiment [2] (0.01 μM), this compound had an inhibition at 0.01 µM of 12%. In experiment [2] (0.05 μM), this compound displayed an inhibition at 0.05 µM of 27%. Also, the inhibition at 0.1 µM in experiment [2] (0.1 μM) was determined as 38%.
Consider `Cc1cn([C@H]2C[C@H](F)[C@@H](CO)O2)c(=O)[nH]c1=O`, for which the “apparent ID50-value” in experiment [1] (from Table I, tested as 5'-triphosphate, 3 hours at 37° C.) was determined as 160 nM. Further, the “ID50-value with regard to the activity of HIV reverse transcriptase” value in experiment [2] (by extrapolation from Table II, tested as 5'-triphosphate) was 200 nM. The Reverse transcriptase activity in experiment [3] (0.01 μM, day 4 post-infection, untreated 0.9) was found to be 0.5 cpm × 10^-3; in experiment [3] (0.01 μM, day 8 post-infection, untreated 19) it was 1.3 cpm × 10^-3; in experiment [3] (0.01 μM, day 11 post-infection, untreated 17), 1.9 cpm × 10^-3; in experiment [3] (0.01 μM, day 15 post-infection, untreated 11) it was 2.7 cpm × 10^-3; in experiment [3] (0.01 μM, day 18 post-infection, untreated 27) it was 28 cpm × 10^-3; in experiment [3] (0.01 μM, day 22 post-infection, untreated 46) it was 52 cpm × 10^-3. In addition, the Reverse transcriptase activity in experiment [3] (0.01 μM, day 29 post-infection, untreated 16) turned out to be 21 cpm × 10^-3; in experiment [3] (0.05 μM, day 4 post-infection, untreated 0.9), 0.3 cpm × 10^-3; in experiment [3] (0.05 μM, day 8 post-infection, untreated 19), 0.3 cpm × 10^-3; in experiment [3] (0.05 μM, day 11 post-infection, untreated 17), 0.4 cpm × 10^-3; in experiment [3] (0.05 μM, day 15 post-infection, untreated 11), 0.6 cpm × 10^-3; in experiment [3] (0.05 μM, day 18 post-infection, untreated 27) it was 0.5 cpm × 10^-3. In addition, the Reverse transcriptase activity in experiment [3] (0.05 μM, day 22 post-infection, untreated 46) came out at 1.6 cpm × 10^-3; in experiment [3] (0.05 μM, day 29 post-infection, untreated 16), 3.1 cpm × 10^-3; in experiment [3] (0.1 μM, day 4 post-infection, untreated 0.9) it was 0.2 cpm × 10^-3; in experiment [3] (0.1 μM, day 8 post-infection, untreated 19) it was 0.2 cpm × 10^-3; in experiment [3] (0.1 μM, day 11 post-infection, untreated 17) it was 0.5 cpm × 10^-3; in experiment [3] (0.1 μM, day 15 post-infection, untreated 11), 0.4 cpm × 10^-3. Besides, the Reverse transcriptase activity amounted to 0.4 cpm × 10^-3 in experiment [3] (0.1 μM, day 18 post-infection, untreated 27); 0.2 cpm × 10^-3 in experiment [3] (0.1 μM, day 22 post-infection, untreated 46); 0.2 cpm × 10^-3 in experiment [3] (0.1 μM, day 29 post-infection, untreated 16); 0.3 cpm × 10^-3 in experiment [3] (0.5 μM, day 4 post-infection, untreated 0.9); 0.3 cpm × 10^-3 in experiment [3] (0.5 μM, day 8 post-infection, untreated 19); 0.5 cpm × 10^-3 in experiment [3] (0.5 μM, day 11 post-infection, untreated 17). The Reverse transcriptase activity in experiment [3] (0.5 μM, day 15 post-infection, untreated 11) was 0.3 cpm × 10^-3; in experiment [3] (0.5 μM, day 18 post-infection, untreated 27) it was 0.6 cpm × 10^-3; in experiment [3] (0.5 μM, day 22 post-infection, untreated 46), 0.1 cpm × 10^-3; in experiment [3] (0.5 μM, day 29 post-infection, untreated 16), 0.2 cpm × 10^-3; in experiment [3] (1.0 μM, day 4 post-infection, untreated 0.9), 0.3 cpm × 10^-3; in experiment [3] (1.0 μM, day 8 post-infection, untreated 19), 0.2 cpm × 10^-3. In addition, the Reverse transcriptase activity turned out to be 0.5 cpm × 10^-3 in experiment [3] (1.0 μM, day 11 post-infection, untreated 17); 0.4 cpm × 10^-3 in experiment [3] (1.0 μM, day 15 post-infection, untreated 11); 0.5 cpm × 10^-3 in experiment [3] (1.0 μM, day 18 post-infection, untreated 27); 0.1 cpm × 10^-3 in experiment [3] (1.0 μM, day 22 post-infection, untreated 46); 0.2 cpm × 10^-3 in experiment [3] (1.0 μM, day 29 post-infection, untreated 16). The “effect on reverse transcriptase activity of HIV (in words)” value is given as “enzyme activity was not detected” in experiment [3] (0.01 μM, up to 11 days); “no significant enzyme activity was detected” in experiment [3] (0.05 μM, up to 22 days); “completely prevents the enzyme activity” in experiment [3] (0.1 μM and higher concentrations, during at least 29 days). Also, the “cytostatic and virustatic activity” value in the experiment with DNA synthesis is “cytostatic and virustatic activity as selective inhibitor of DNA synthesis”.
